Data published in US20020188323A1, “Methods, systems and devices for in vivo electrochemical production of therapeutic agents” (Remon Medical Technologies Ltd., priority 2001, published 2002).

Key:
cells = details: cited from earlier work
Dissociation of HClO = type: physicochemical; details: −log Ka
Text: The dissociation constant of HClO or, in other words, the equilibrium constant of the reaction HClO→H^++ClO^−[6] is 3.7×10^−8.
Thus, the pKa of the reaction (i.e., −logka) equals 7.4. It is well known that when the pH of a solution equals the pKa of an acid dissolved therein, at all times, half of the acid molecules are dissociated. Since the blood pH value equals 7.4 half of the HClO is dissociated to H^+ and ClO^−.

viruses and bacteria = details: cited from earlier work
[1] = tested on: P388D1 murine macrophage-like tumor cells; details: cited from earlier work
human endothelial cells [2] = assay: Effect of hypochlorite on human endothelial cells (Vissers et al.); type: cell-based
Text: Hypochlorite and hydrogen peroxide are strong oxidants and are extensively used as antiseptic agents. Hydrogen peroxide is routinely used as an antiseptic agent in cases of external wounds. Hypochlorite is used as an antiseptic agent during, for example, dental root treatment. Both hypochlorous acid and hydrogen peroxide are well-known disinfectants. Hypochlorite is widely used for treatment of drinking water and as a bactericide. Both hypochlorite and hydrogen peroxide have cytotoxic activity at concentrations of several ppm. Vissers et al. tested the effect of hypochlorite on cells. They noticed a necrosis threshold of 20-40 nmole HClO per 1.2×10^5 cells, which translates approximately into 2 ppm concentration. Transient growth (proliferation) inhibition occurred at lower concentrations of 5 nmole, or about 0.2-0.3 ppm. See, “Hypochlorous acid causes caspase activation and apoptosis or growth arrest in human endothelial cells”, by Margret C. M. Vissers, Juliet M. Pullar and Mark B. Hampton, Biochem. J. (1999) vol. 344, pp. 443-449. Schraufenstatter et al. discuss the effect of hypochlorite on P388D1 murine macrophage-like tumor cells in mice. They show cell damage at 0.5-1 ppm hypochlorite and cell death from about 4 ppm hypochlorite and up. […]

human endothelial cells [3] = details: cited from earlier work

Structure (SMILES)	concentration with cytotoxic activity (cells)	pKa (Dissociation of HClO)	level required to kill all viruses and bacteria (viruses and bacteria) [ppm]	concentration causing cell damage [1]	concentration causing cell death [1] [ppm]	transient growth (proliferation) inhibition as concentration (human endothelial cells [2]; equivalent of 5 nmole)	necrosis threshold as concentration (human endothelial cells [2]; translated from nmole per 1.2×10^5 cells) [ppm]	necrosis threshold (human endothelial cells [3])	transient growth (proliferation) inhibition (human endothelial cells [3]; lower concentrations than necrosis) [nmol]
OO [hydrogen peroxide]	several	–	–	–	–	–	–	–	–
OCl [hypochlorite, hypochlorous acid]	several	7.4	40	0.5-1 ppm	≥ 4	0.2-0.3 ppm	~2	20-40 nmole HClO per 1.2×10^5 cells	5
